Assay results: US6469004B1, “Benzoheterocycles and their uses as MEK inhibitors” (Warner-Lambert Company, priority 1999, dated 2002)
pIC50: −log10 of the molar value. Where a name gives a salt, the structure may show the parent alone. Read-outs that look alike come from different tables or passages of the source.

Key:
colon 26 cells = colon 26 cells IC50 (whole cell assay); format: cell-based; conditions: Mus musculus
Experimental: Whole Cell MAP Kinase Assay
To determine if compounds block activation of MAP kinase in whole cells, the following protocol is used. Cells are plated in multi-well plates and grown to confluence. Cells are serum-deprived overnight. […] After a 5-minute treatment with the growth factor, cells are washed with PBS, and lysed in a buffer consisting of 70 mM NaCl, 10 mM HEPES (pH 7.4), 50 mM glycerol phosphate, and 1% Triton X-100. Lysates are clarified by centrifugation at 13,000×g for 10 minutes. Five to fifteen micrograms of protein from the resulting supernatants are subjected to SDS/PAGE and Western blotting for phosphorylated MAP kinase levels.

[1] = molecular target: GST-MEK (p45MEK) / GST-MAPK (p44MAP kinase) cascade (APK) (Homo sapiens, UniProt Q02750); assay: APK IC50 (cascade assay for inhibitors of the MAP kinase pathway); format: biochemical
Experimental: Cascade Assay for Inhibitors of the MAP Kinase Pathway
Incorporation of ^32P into myelin basic protein (MBP) is assayed in the presence of a glutathione S-transferase fusion protein containing p44MAP kinase (GST-MAPK) and a glutathione S-transferase fusion protein containing p45MEK (GST-MEK). The assay solution contains 20 mM HEPES, pH 7.4, 10 mM MgCl2, 1 mM EGTA, 50 μM [γ-^32P]ATP, 10 μg GST-MEK, 0.5 μg GST-MAPK and 40 μg MBP in a final volume of 100 μL. Reactions are stopped after 20 minutes by addition of trichloroacetic acid and filtered through a GFIC filter mat. ^32P retained on the filter mat is determined using a 120S Betaplate. Compounds are assessed at 10 μM for ability to inhibit incorporation of 32P.
To ascertain whether compounds are inhibiting GST-MEK or GST MAPK, two additional protocols are employed. In the first protocol, compounds are added to tubes containing GST-MEK, followed by addition of GST-MAPK, MBP and [γ-^32P]ATP. In the second protocol, compounds are added to tubes containing both GST-MEK and GST-MAPK, followed by MBP and [γ-^32P]ATP.
Compounds that show activity in both protocols are scored as MAPK inhibitors, while compounds showing activity in only the first protocol are scored as MEK inhibitors.

GST-MEK (p45MEK) / GST-MAPK (p44MAP kinase) cascade (APK), sequence (Q02750 whole entry): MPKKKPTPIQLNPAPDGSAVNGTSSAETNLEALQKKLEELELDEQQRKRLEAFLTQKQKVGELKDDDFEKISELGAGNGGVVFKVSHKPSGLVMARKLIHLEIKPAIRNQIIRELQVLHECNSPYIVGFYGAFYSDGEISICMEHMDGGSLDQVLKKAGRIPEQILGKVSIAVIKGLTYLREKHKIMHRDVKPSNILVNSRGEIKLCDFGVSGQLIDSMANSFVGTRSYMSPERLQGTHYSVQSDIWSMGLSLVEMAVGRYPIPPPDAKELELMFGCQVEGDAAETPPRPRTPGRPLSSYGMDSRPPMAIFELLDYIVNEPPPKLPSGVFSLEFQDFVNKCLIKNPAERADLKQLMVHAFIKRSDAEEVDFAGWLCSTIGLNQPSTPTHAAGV

Row | melting point | pIC50 (colon 26 cells; read-out: colon 26 cells, IC50) | pIC50 [1] | pIC50 (colon 26 cells; read-out: Colon 26 Cells, 1 Hour Pretreatment, IC50) | Compound
1 | 168 to 172 °C |  |  |  | Cc1cc(I)ccc1Nc1c(C(=O)NOCC2CC2)cc2nc[nH]c2c1F (as salt: salt) [PD 254552, 7-fluoro-6-(4-iodo-2-methyl-phenylamino)-1H-benzoimidazole-5-carboxylic acid cyclopropylmethoxy-amide]
2 | 247 to 248 °C (dec.) | < 5.00 |  |  | Cc1cc(I)ccc1Nc1c(C(=O)O)cc2nc[nH]c2c1F [PD 205293, 7-fluoro-6-(4-iodo-2-methyl-phenylamino)-1H-benzoimidazole-5-carboxylic acid]
3 |  |  | 6.92 |  | Cc1cc(I)ccc1Nc1c(C(=O)Oc2c(F)c(F)c(F)c(F)c2F)cc2nc[nH]c2c1F [PD 254551, 7-fluoro-6-(4-iodo-2-methyl-phenylamino)-1H-benzoimidazole-5-carboxylic acid pentafluorophenyl ester]
4 |  |  | > 8.00 | 7.70 | Cc1cc(I)ccc1Nc1c(C(=O)NOCC2CC2)cc2nc[nH]c2c1F [PD 254552, 7-fluoro-6-(4-iodo-2-methyl-phenylamino)-1H-benzoimidazole-5-carboxylic acid cyclopropylmethoxy-amide]
